This is an account of results in US7728012B2, “Carboxamide compounds and their use as calpain inhibitors” (Abbott GmbH & Co. KG, priority 2006, dated 2010).

Common to all, as to type: biochemical
For experiment [1], the target named is T1, calpain-I isolated from human erythrocytes (Homo sapiens, UniProt P07384).
T1 construct: calpain-I—isolated from human erythrocytes; purchased Calbiochem 208713; host or cells: human erythrocytes (tissue isolate)
T1 sequence (P07384 1-714): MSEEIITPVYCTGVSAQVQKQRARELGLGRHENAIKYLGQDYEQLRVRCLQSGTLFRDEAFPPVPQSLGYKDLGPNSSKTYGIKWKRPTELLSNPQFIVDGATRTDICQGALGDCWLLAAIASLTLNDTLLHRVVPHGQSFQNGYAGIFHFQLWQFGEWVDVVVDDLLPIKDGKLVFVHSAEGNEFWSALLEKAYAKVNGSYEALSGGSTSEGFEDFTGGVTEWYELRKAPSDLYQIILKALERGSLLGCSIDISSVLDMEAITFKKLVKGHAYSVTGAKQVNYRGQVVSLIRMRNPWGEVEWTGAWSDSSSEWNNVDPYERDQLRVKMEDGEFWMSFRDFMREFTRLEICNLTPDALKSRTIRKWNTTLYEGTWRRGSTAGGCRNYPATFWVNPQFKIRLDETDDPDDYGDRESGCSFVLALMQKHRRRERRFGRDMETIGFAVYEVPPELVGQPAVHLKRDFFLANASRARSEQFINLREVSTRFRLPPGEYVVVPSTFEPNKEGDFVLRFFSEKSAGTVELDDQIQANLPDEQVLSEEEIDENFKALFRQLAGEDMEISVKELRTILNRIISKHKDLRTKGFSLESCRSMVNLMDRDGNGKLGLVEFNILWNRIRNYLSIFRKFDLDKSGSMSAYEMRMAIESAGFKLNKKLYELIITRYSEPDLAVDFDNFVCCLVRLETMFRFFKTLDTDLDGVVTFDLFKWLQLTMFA
T1 sequence (P04632 1-268 partner): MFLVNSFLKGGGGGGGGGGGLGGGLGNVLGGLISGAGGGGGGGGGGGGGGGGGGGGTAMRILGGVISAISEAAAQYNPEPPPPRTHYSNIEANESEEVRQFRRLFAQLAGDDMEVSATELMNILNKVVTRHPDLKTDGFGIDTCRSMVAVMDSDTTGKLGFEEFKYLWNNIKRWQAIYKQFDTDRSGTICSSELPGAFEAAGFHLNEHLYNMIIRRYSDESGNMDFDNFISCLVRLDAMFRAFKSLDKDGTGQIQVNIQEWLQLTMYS
Description: Calpain I kinetic fluorescence enzyme inhibition assay. To be noted: apparent Ki from IC50 by Cheng-Prussoff; average of 2 to 4 dose-effect plots.

The target in experiment [2] is T2, cathepsin L isolated from human liver (Homo sapiens, UniProt P07711).
T2 construct: cathepsin L—isolated from human liver; purchased Calbiochem 219402; host or cells: human liver (tissue isolate)
T2 sequence (P07711 114-333): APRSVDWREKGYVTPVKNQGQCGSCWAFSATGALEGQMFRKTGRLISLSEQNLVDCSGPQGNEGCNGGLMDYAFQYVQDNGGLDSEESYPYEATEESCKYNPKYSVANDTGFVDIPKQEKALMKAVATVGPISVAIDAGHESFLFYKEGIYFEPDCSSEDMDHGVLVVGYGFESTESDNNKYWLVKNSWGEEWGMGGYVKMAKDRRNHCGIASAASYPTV
Description: Cathepsin L kinetic fluorescence enzyme inhibition assay. To be noted: selectivity ratio versus calpain I. As for the experimental part: The following solutions and buffers were employed: • HBS (for 40 ml): 800 μl M HEPES; 2.16 ml 100 mM KCl; 4.8 ml 1M NaCl; 3.59 ml 5% glucose; 60 μl μM MgSO4; 400 μl 100 mM Na pyruvate, 28.19 ml water; pH 7.2-7.5. • lysis buffer (for 20 ml): 400 μl M Tris pH 8.2; 2.74 ml 1M NaCl; 520 μl 0.5M EDTA; 2 ml 10% triton X-100; 0.8 ml (=1:25) CompletePlus (1 tablet/2 ml H2O); 200 μl 100 mM Pefabloc; 13.34 ml water, pH 8.2. • TBST (10×) (for 1 l): 100 mM Tris (12.1 g); 1.5M NaCl (87 g); 1% Tween 20 (10 g), adjusted to pH 8. I Enzyme Inhibition In Vitro: • Testing for blockade of the corresponding enzymic activities was carried out by means of kinetic fluorescence assays (excitation 390 nm, emission 460 nm). • Apparent Ki values were calculated from the experimentally determined IC50 values by the Cheng-Prussoff relation assuming a reversible competitive enzyme inhibition. The Km values of the substrates used under the assay conditions indicated above were: 90 μM (Z-Phe-Arg-AMC, cathepsin B), 10 μM (Z-Gly-Pro-Arg-AMC, cathepsin K), 2 μM (Z-Phe-Arg-AMC, cathepsin L), and 30 μM (Z-Val-Val-Arg-AMC, cathepsin S). • The indicated Ki values are averages of the inhibition constants calculated on the basis of 2 to 4 independent dose-effect plots.
The following assays were used: • 1. Calpain I: • 20 nM calpain-I—isolated from human erythrocytes (Calbiochem #208713), 100 μM Suc-Leu-Tyr-AMC (Bachem #1-1355) as substrate in buffer with 62 mM imidazole, 0.3 mM CaCl2, 0.10% CHAPS, 0.05% BSA, 1 mM DTT at pH 7.3 and room temperature. • 2. Cathepsin B: • 0.25 nM cathepsin B—isolated from human liver (Calbiochem #219362), 100 μM Z-Phe-Arg-AMC (Bachem #I-1160) as substrate 50 mM MES, 2 mM EDTA, 0.05% Brij 35, 2.5 mM L-cysteine, pH 6.0, room temperature. • 3. Cathepsin K: • 3 nM cathepsin K—activated from recombinant human procathepsin K from E. coli (Calbiochem #342001), 10 μM Z-Gly-Pro-Arg-AMC (Biomol #P-142) as substrate in 50 mM MES, 2 mM EDTA, 0.05% Brij 35, 2.5 mM L-cysteine, pH 6.0, room temperature. • 4. Cathepsin L: • 1 nM cathepsin L—isolated from human liver (Calbiochem #219402), 2 μM Z-Phe-Arg-AMC (Bachem #1-1160) as substrate in 50 mM MES, 2 mM EDTA, 0.05% Brij 35, 2.5 mM L-cysteine, pH 6.0, room temperature. • 5. Cathepsin S: • 0.5 nM recombinant human cathepsin S from E. coli (Calbiochem #219343), 20 μM Z-Val-Val-Arg-AMC (Bachem #1-1540) as substrate in 50 mM MES, 2 mM EDTA, 0.05% Brij 35, 2.5 mM L-cysteine, pH 6.0, room temperature. • The results of the in vitro determination are indicated in Table 1. The following abbreviations are used in Table 1: • The “Calpain activity” column, ++ stands for a calpain Ki (Ki(calpain)) of ≦40 nM and + means: 40 nM<Ki(Calpain)≦100 nM. • The “Sel. cat. B” column indicates the Ki(cathepsin B)/Ki(calpain) ratio. In this connection, ++ means a Ki(cathepsin B)/Ki(calpain) ratio of ≧30 and + means 10≦Ki(cathepsin B)/Ki(calpain)<30. • The “Sel. cat. K” column indicates the Ki(cathepsin K)/Ki(calpain) ratio. In this connection, ++ means a Ki(cathepsin K)/Ki(calpain) ratio of ≧30 and + means 10≦Ki(cathepsin K)/Ki(calpain)<30. • The “Sel. cat. L” column indicates the Ki(cathepsin L)/Ki(calpain) ratio. In this connection, ++ means a Ki(cathepsin L)/Ki(calpain) ratio of ≧50 and + means 30≦Ki(cathepsin L)/Ki(calpain)<50. • The “Sel. cat. S” column indicates the Ki(cathepsin S)/Ki(calpain) ratio. In this connection, ++ means a Ki(cathepsin S)/Ki(calpain) ratio of ≧100 and + means 50≦Ki(cathepsin S)/Ki(calpain)<100.

For experiment [3], the target named is T3, recombinant human cathepsin S (Homo sapiens, UniProt P25774).
T3 construct: purchased Calbiochem 219343; host or cells: E. coli
T3 sequence (P25774 115-331): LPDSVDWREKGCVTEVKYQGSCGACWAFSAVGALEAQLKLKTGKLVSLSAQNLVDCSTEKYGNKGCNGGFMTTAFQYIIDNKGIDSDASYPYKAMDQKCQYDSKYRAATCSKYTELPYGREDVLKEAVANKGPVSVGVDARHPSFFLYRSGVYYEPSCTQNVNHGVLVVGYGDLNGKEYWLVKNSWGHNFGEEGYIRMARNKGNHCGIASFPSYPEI
As to the kind of experiment: Cathepsin S kinetic fluorescence enzyme inhibition assay. To be noted: selectivity ratio versus calpain I. The procedure, abridged: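 cat B 0.25 nM + Z-Phe-Arg-AMC 100 μM; cat L 1 nM + Z-Phe-Arg-AMC 2 μM; cat S 0.5 nM (E. coli-expressed) + Z-Val-Val-Arg-AMC 20 μM. 50 mM MES pH 6.0, 2.5 mM L-Cys, RT. Ex 390/em 460, kinetic; Ki app = Cheng-Prusoff from IC50, mean of 2–4 curves.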

As for `NC(=O)C(=O)C(Cc1ccccc1)NC(=O)c1cccnc1-n1ccc(-c2ccc(Cl)cc2)n1` (stereo not drawn) [Example 39, N-(3-Amino-1-benzyl-2,3-dioxopropyl)-2-[3-(4-chlorophenyl)-1H-pyrazol-1-yl]nicotinamide], in experiment [1], the Ki was in the range of 40 to 100 nM. In addition, the “Sel cat. L (Ki(cathepsin L)/Ki(calpain) ratio)” value in experiment [2] is given as “++ (Ki(cathepsin L)/Ki(calpain) ratio of ≧50)”. Further, the “Sel cat. S (Ki(cathepsin S)/Ki(calpain) ratio)” value in experiment [3] is “++ (Ki(cathepsin S)/Ki(calpain) ratio of ≧100)”.

For `CCCCC(NC(=O)c1cccnc1-n1ccc(-c2ccc(OC)cc2)n1)C(=O)C(N)=O` (stereo not drawn) [Example 49, N-{1-[Amino(oxo)acetyl]pentyl}-2-[3-(4-methoxyphenyl)-1H-pyrazol-1-yl]nicotinamide], in experiment [1], the Ki lay within 40 to 100 nM. In addition, the “Sel cat. L (Ki(cathepsin L)/Ki(calpain) ratio)” value in experiment [2] is listed as “+ (30≦Ki(cathepsin L)/Ki(calpain)<50)”. Further, the “Sel cat. S (Ki(cathepsin S)/Ki(calpain) ratio)” value in experiment [3] was “++ (Ki(cathepsin S)/Ki(calpain) ratio of ≧100)”.

On to `CCCCC(NC(=O)c1cccnc1-n1ccc(-c2cccc(N3CCOCC3)c2)n1)C(=O)C(N)=O` (stereo not drawn) [Example 59, N-{1-[Amino(oxo)acetyl]pentyl}-2-[3-(3-morpholin-4-ylphenyl)-1H-pyrazol-1-yl]nicotinamide], for which the Ki in experiment [1] was no more than 40 nM. Further, in experiment [2], the “Sel cat. L (Ki(cathepsin L)/Ki(calpain) ratio)” value is “++ (Ki(cathepsin L)/Ki(calpain) ratio of ≧50)”. For the same molecule, the “Sel cat. S (Ki(cathepsin S)/Ki(calpain) ratio)” value in experiment [3] is recorded as “+ (50≦Ki(cathepsin S)/Ki(calpain)<100)”.

As to `N#Cc1ccc(-c2ccn(-c3ncccc3C(=O)NC(Cc3ccccc3)C(=O)C(N)=O)n2)cc1` (stereo not drawn) [Example 62, N-(3-Amino-1-benzyl-2,3-dioxopropyl)-2-[3-(4-cyanophenyl)-1H-pyrazol-1-yl]nicotinamide], the Ki in experiment [1] lay within 40 to 100 nM. In addition, the “Sel cat. L (Ki(cathepsin L)/Ki(calpain) ratio)” value in experiment [2] is listed as “++ (Ki(cathepsin L)/Ki(calpain) ratio of ≧50)”. Moreover, in experiment [3], the “Sel cat. S (Ki(cathepsin S)/Ki(calpain) ratio)” value is “++ (Ki(cathepsin S)/Ki(calpain) ratio of ≧100)”.

As to `NC(=O)C(=O)C(Cc1ccccc1)NC(=O)c1cccnc1-n1cc2ccccc2n1` (stereo not drawn) [Example 78, N-(3-Amino-1-benzyl-2,3-dioxopropyl)-2-(2H-indazol-2-yl)nicotinamide], in experiment [1], the Ki fell in the range of 40 to 100 nM. In addition, in experiment [2], the “Sel cat. L (Ki(cathepsin L)/Ki(calpain) ratio)” value is listed as “++ (Ki(cathepsin L)/Ki(calpain) ratio of ≧50)”. Also, the “Sel cat. S (Ki(cathepsin S)/Ki(calpain) ratio)” value in experiment [3] is on record as “+ (50≦Ki(cathepsin S)/Ki(calpain)<100)”.

`NC(=O)C(=O)C(Cc1ccccc1)NC(=O)c1ccccc1-n1ccc(-c2ccccc2)n1` (stereo not drawn) [Example 106, N-[3-Amino-2,3-dioxo-1-(phenylmethyl)propyl]-2-(3-phenyl-1H-pyrazol-1-yl)benzamide]: the Ki in experiment [1] is no more than 40 nM. In experiment [2], the “Sel cat. L (Ki(cathepsin L)/Ki(calpain) ratio)” value is “+ (30≦Ki(cathepsin L)/Ki(calpain)<50)”. In addition, the “Sel cat. S (Ki(cathepsin S)/Ki(calpain) ratio)” value in experiment [3] is on record as “++ (Ki(cathepsin S)/Ki(calpain) ratio of ≧100)”.

`NC(=O)C(=O)C(Cc1ccccc1)NC(=O)c1cccnc1-n1cc2c(n1)-c1ccccc1OCC2` (stereo not drawn) [Example 141, N-[3-Amino-2,3-dioxo-1-(phenylmethyl)propyl]-2-(4,5-dihydro-2H-[1]benzoxepino[5,4-c]pyrazol-2-yl)pyridine-3-carboxamide]: the Ki in experiment [1] was 40 to 100 nM. The “Sel cat. L (Ki(cathepsin L)/Ki(calpain) ratio)” value in experiment [2] is reported as “++ (Ki(cathepsin L)/Ki(calpain) ratio of ≧50)”. Further, in experiment [3], the “Sel cat. S (Ki(cathepsin S)/Ki(calpain) ratio)” value is reported as “++ (Ki(cathepsin S)/Ki(calpain) ratio of ≧100)”.

Regarding `CS(=O)(=O)NCc1cn(-c2ncccc2C(=O)NC(Cc2ccccc2)C(=O)C(N)=O)nc1-c1ccc(F)cc1` (stereo not drawn) [Example 187, N-[3-Amino-2,3-dioxo-1-(phenylmethyl)propyl]-2-[3-(4-fluorophenyl)-4-{[(methylsulfonyl)amino]methyl}-1H-pyrazol-1-yl]pyridine-3-carboxamide], the Ki in experiment [1] fell in the range of 40 to 100 nM. Also, the “Sel cat. L (Ki(cathepsin L)/Ki(calpain) ratio)” value in experiment [2] is recorded as “+ (30≦Ki(cathepsin L)/Ki(calpain)<50)”. Moreover, the “Sel cat. S (Ki(cathepsin S)/Ki(calpain) ratio)” value in experiment [3] is given as “++ (Ki(cathepsin S)/Ki(calpain) ratio of ≧100)”.
